What all share (test): growth of human tumour cells (NCI), 48 h
The test system of assay [1] is A549.
The subject of assay [2] is ACHN.
Assay [3] concerns EKVX.
Assay [4] deals with HOP-62.
Assay [5] deals with HOP-92.
In assay [6] the test system is K562.
Assay [7] relates to Malme-3M.
For assay [8], the system named is NCI-H226.
In assay [9] the test system is NCI-H23.
Assay [10] has as its system OVCAR-4.
The subject of assay [11] is OVCAR-5.
Assay [12] concerns OVCAR-8.
For assay [13], the system named is SF-539.
Assay [14] has as its system SK-MEL-28.
For assay [15], the system named is SNB-19.
For assay [16], the system named is SW-620.
The subject of assay [17] is TK-10.
Assay [18] deals with U-251.
Assay [19] relates to UACC-257.
The subject of assay [20] is UO-31.

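48-hour exposure; five concentrations; linearly interpolated endpoints. The concentration for 50% growth inhibition is given as GI50.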 Activity calls are given as the source filed them. Rule as the data show it: active = GI50 up to about 1.1 µM and inactive = higher. Starred links: 1 amine or outer side, 2 acyl side, 3 side chain; linkers in the order of their positions; H or OH if unused. Non-standard residues stand in square brackets, D forms with d. Residues, ends and D or L forms follow the SMILES beside them. *: point of attachment. X47 = CCC(=O)CC1CC(C)CC(C(=O)[*:2])N1[*:1]; X46 = CCCCCCCCC(C)C(=O)*; Aib = CC(C)(N)C(=O)O; X48 = CC(CN(C)CCO)N*

For `CCOC(=O)c1c(-c2ccc(OC)cc2)c(C#N)c(=S)n(C2OC(COC(C)=O)C(OC(C)=O)C(OC(C)=O)C2OC(C)=O)c1C` (stereo not given), the GI50 in [1] was > 100 µM (inactive); in [2], 58.2 µM (inactive); in assay [3], 78.2 µM (inactive); in assay [4] it was > 100 µM (inactive); in [5] it was 4.32 µM (inactive); in assay [6] it was 38.4 µM (inactive). Also, the GI50 in assay [7] was > 100 µM (inactive); in assay [8], > 100 µM (inactive); in assay [9] it was > 100 µM (inactive); in [10] it was 20.9 µM (inactive); in assay [11], > 100 µM (inactive); in [12], > 100 µM (inactive). The GI50 in assay [13], in [14], in [15], in [16], in assay [17] and in assay [18] was > 100 µM (inactive) each time. Besides, the GI50 is > 100 µM (inactive) in assay [19] and 1.46 µM (inactive) in assay [20].
In the case of `COc1ccc(/C=C/C(=N/NC(=O)N/N=C(/C=C/c2ccc(OC)cc2)C(C)(C)CN2CCCCC2)C(C)(C)CN2CCCCC2)cc1`, the GI50 in assay [1] is 1.86 µM (inactive); in [2], 1.75 µM (inactive); in assay [3] it was 2.8 µM (inactive); in [4] it was 2.15 µM (inactive); in [5] it was 1.47 µM (inactive); in assay [6] it was 0.467 µM (active). The GI50 is 1.92 µM (inactive) in assay [7]; 1.5 µM (inactive) in [8]; 3.03 µM (inactive) in assay [9]; 1.88 µM (inactive) in [10]; 2.96 µM (inactive) in [11]; 1.8 µM (inactive) in [12]. Besides, the GI50 is 2.28 µM (inactive) in assay [13]; 1.56 µM (inactive) in assay [14]; 2.61 µM (inactive) in [15]; 2.11 µM (inactive) in assay [16]; 2.01 µM (inactive) in [17]; 1.85 µM (inactive) in [18]. In addition, the GI50 was 1.86 µM (inactive) in [19] and 1.58 µM (inactive) in assay [20].
Turning to `O=[N+]([O-])c1ccc(C(Cl)C(Cl)c2ccc(C(Cl)C(Cl)c3ccc([N+](=O)[O-])cc3[N+](=O)[O-])cc2)c([N+](=O)[O-])c1` (stereo not given), the GI50 in [1] was 1.63 µM (inactive); in [2], 2.05 µM (inactive); in assay [3] it was 2.13 µM (inactive); in assay [4], 3.01 µM (inactive); in assay [5] it was 1.28 µM (inactive); in [6], 0.187 µM (active). In addition, the GI50 was 1.27 µM (inactive) in assay [7]; 2.29 µM (inactive) in assay [8]; 1.52 µM (inactive) in assay [9]; 1.52 µM (inactive) in [10]; 1.86 µM (inactive) in assay [11]; 0.912 µM (active) in assay [12]. Further, the GI50 in assay [13] was 1.67 µM (inactive); in assay [14], 2.3 µM (inactive); in assay [15], 0.671 µM (active); in [16], 0.75 µM (active); in assay [17] it was 5.79 µM (inactive); in assay [18], 1.26 µM (inactive). Also, the GI50 in assay [19] was 1.72 µM (inactive); in [20] it was 2.17 µM (inactive).
In the case of `Cc1ccccc1NC(=O)c1nc(S)nc(N)c1-c1ccccc1C`, the GI50 in assay [1], in [2], in assay [3], in assay [4], in [5] and in assay [6] was > 100 µM (inactive) throughout. For the same compound, the GI50 in assay [7], in [8], in [9], in [10], in assay [11] and in assay [12] was > 100 µM (inactive) throughout. The GI50 in [13], in assay [14], in assay [15], in assay [16], in [17] and in assay [18] was > 100 µM (inactive) in each case. Also, the GI50 in assay [19] and in [20] was > 100 µM (inactive) each time.
`CCCCCCCCC(C)C(=O)N1CCCC1C(=O)N1C(CC(=O)CC)CC(C)CC1C(=O)NC(C)C(=O)NC(C)(C)C(=O)NC(C)(C)C(=O)NC(C(=O)NC(C)C(=O)NC(C)(C)C(=O)NC(C)(C)C(=O)NC(C)CN(C)CCO)C(C)CC` (stereo not given) (X46-P[X47]A[Aib][Aib]IA[Aib][Aib]-X48; configuration not given here): the GI50 in [1] was < 0.01 µM (active); in [2], 0.0368 µM (active); in [3], < 0.01 µM (active); in [4], 0.116 µM (active); in assay [5], < 0.01 µM (active); in assay [6] it was < 0.01 µM (active). Moreover, the GI50 in assay [7] is 1.26 µM (inactive); in assay [8] it was 0.133 µM (active); in [9], < 0.01 µM (active); in assay [10], < 0.0118 µM (active); in [11], 0.889 µM (active); in assay [12], < 0.01 µM (active). The GI50 in assay [13] is 0.211 µM (active); in assay [14], 2.89 µM (inactive); in assay [15], 0.214 µM (active); in [16], 0.0794 µM (active); in assay [17] it was 0.09 µM (active); in [18], < 0.0498 µM (active). The GI50 was < 0.01 µM (active) in [19] and 0.124 µM (active) in assay [20].
As to `CCCCCCCCCCCCOCCCOP(=O)([O-])OCC[N+](C)(C)C`, the GI50 is 64 µM (inactive) in [1]; 30.6 µM (inactive) in assay [2]; 99.1 µM (inactive) in assay [3]; 43.2 µM (inactive) in assay [4]; 19.4 µM (inactive) in [5]; 48.8 µM (inactive) in [6]. Moreover, the GI50 in assay [7] was 64.7 µM (inactive); in assay [8] it was 24.3 µM (inactive); in [9], 67.6 µM (inactive); in assay [10] it was 22.1 µM (inactive); in [11], 21.1 µM (inactive); in assay [12], 47.8 µM (inactive). The GI50 in assay [13] was 31.2 µM (inactive); in assay [14], 58.5 µM (inactive); in assay [15], 20.6 µM (inactive); in [16], 63.5 µM (inactive); in assay [17], 3.4 µM (inactive); in assay [18] it was 16.1 µM (inactive). The GI50 in assay [19] is > 76 µM (inactive); in [20], 49.4 µM (inactive).
For the compound `Sc1ncnc2c1ncn2Cc1ccco1`, the GI50 in [1], in [2], in assay [3], in assay [4], in [5] and in [6] was > 100 µM (inactive) in each case. Moreover, the GI50 in assay [7], in assay [8], in assay [9], in assay [10], in assay [11] and in [12] was > 100 µM (inactive) throughout. Moreover, the GI50 in assay [13], in [14], in assay [15], in assay [16], in assay [17] and in [18] was > 100 µM (inactive) each time. Besides, the GI50 in [19] and in assay [20] was > 100 µM (inactive) each time.
On to `Cc1ccc(Oc2ccc(C(=O)c3cccc(C(=O)c4ccc(Oc5ccc(C)cc5)cc4)n3)cc2)cc1`, for which the GI50 in [1], in assay [2], in assay [3], in assay [4], in assay [5] and in assay [6] was > 100 µM (inactive) in each case. Further, the GI50 was > 100 µM (inactive) in assay [7]; > 100 µM (inactive) in [8]; > 100 µM (inactive) in assay [9]; 71.8 µM (inactive) in [10]; > 100 µM (inactive) in assay [11]; > 100 µM (inactive) in [12]. Also, the GI50 in assay [13], in assay [14], in assay [15], in [16], in [17] and in assay [18] was > 100 µM (inactive) in each case. Also, the GI50 in assay [19] and in assay [20] was > 100 µM (inactive) each time.
For the compound `COc1cc(CN[C@H]2CCc3cc(OC)c(OC)c(OC)c3-c3ccc(SC)c(=O)cc32)cc(OC)c1`, the GI50 in assay [1] was 0.0376 µM (active); in assay [2] it was 0.0439 µM (active); in assay [3], 0.0828 µM (active); in assay [4] it was 0.0562 µM (active); in assay [5], 0.187 µM (active); in assay [6] it was 0.0317 µM (active). Further, the GI50 was 0.0575 µM (active) in assay [7]; 0.0318 µM (active) in [8]; 0.0286 µM (active) in assay [9]; 0.0731 µM (active) in assay [10]; 0.0499 µM (active) in [11]; 0.0481 µM (active) in assay [12]. The GI50 was 0.0206 µM (active) in assay [13]; 0.0386 µM (active) in [14]; 0.0681 µM (active) in assay [15]; 0.0347 µM (active) in [16]; 0.0807 µM (active) in assay [17]; 0.0324 µM (active) in assay [18]. Moreover, the GI50 in [19] is 0.0566 µM (active); in assay [20], 0.0938 µM (active).
As for `Cc1c(CCO)c(O)n2c(nc3ccccc32)c1C#N`, the GI50 in assay [1] was > 100 µM (inactive); in assay [2], > 100 µM (inactive); in [3] it was > 100 µM (inactive); in [4], > 100 µM (inactive); in assay [5], 33.1 µM (inactive); in [6] it was 99.5 µM (inactive). Further, the GI50 in assay [7] was > 100 µM (inactive); in [8], 98.4 µM (inactive); in [9] it was 53.8 µM (inactive); in assay [10], 39.4 µM (inactive); in [11], > 100 µM (inactive); in assay [12], 83.9 µM (inactive). Also, the GI50 was > 100 µM (inactive) in assay [13]; > 100 µM (inactive) in assay [14]; 30.3 µM (inactive) in assay [15]; 54.1 µM (inactive) in assay [16]; > 100 µM (inactive) in assay [17]; 46.1 µM (inactive) in assay [18]. The GI50 in assay [19] is > 100 µM (inactive); in assay [20], 65.8 µM (inactive).
